# Reference: the supplement of paper PMC11451515
# Test system: SEM cells
# Experiment: cell viability relative to DMSO control; higher = less cytotoxic
# Conditions: 48 h
# Procedure, shortened: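 In 1536-well plates, 5 μl of leukemia cells were seeded per well: 500 cells/well for NOMO1 or SEM and 1000 cells/well for P12-Ichikawa. Each line had first been adapted for at least four passages in each medium. Library compounds in DMSO were pin-dosed at 11 threefold concentrations between 47 μM and 0.79 nM, and CellTiter-Glo One luminescence was read after 48 h at 37°C. Viability is a per-plate percentage relative to DMSO wells, with cell-free wells as background.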
# [1] = HPLM + 10% dialyzed FBS, 0.000781 µM
# [2] = HPLM + 10% dialyzed FBS, 0.00234 µM
# [3] = HPLM + 10% dialyzed FBS, 0.00702 µM
# [4] = HPLM + 10% dialyzed FBS, 0.0211 µM
# [5] = HPLM + 10% dialyzed FBS, 0.0632 µM
# [6] = HPLM + 10% dialyzed FBS, 0.19 µM
# [7] = HPLM + 10% dialyzed FBS, 0.569 µM
# [8] = HPLM + 10% dialyzed FBS, 1.71 µM
# [9] = HPLM + 10% dialyzed FBS, 5.12 µM
# [10] = HPLM + 10% dialyzed FBS, 15.4 µM
# [11] = HPLM + 10% dialyzed FBS, 46.1 µM
# [12] = RPMI 5 mM glucose + 10% FBS, 0.000781 µM
# [13] = RPMI 5 mM glucose + 10% FBS, 0.00234 µM
# [14] = RPMI 5 mM glucose + 10% FBS, 0.00702 µM
# [15] = RPMI 5 mM glucose + 10% FBS, 0.0211 µM
# [16] = RPMI 5 mM glucose + 10% FBS, 0.0632 µM
# [17] = RPMI 5 mM glucose + 10% FBS, 0.19 µM
# [18] = RPMI 5 mM glucose + 10% FBS, 0.569 µM
# [19] = RPMI 5 mM glucose + 10% FBS, 1.71 µM
# [20] = RPMI 5 mM glucose + 10% FBS, 5.12 µM
# [21] = RPMI 5 mM glucose + 10% FBS, 15.4 µM
# [22] = RPMI 5 mM glucose + 10% FBS, 46.1 µM
# [23] = RPMI 5 mM glucose + 10% dialyzed FBS, 0.000781 µM
# [24] = RPMI 5 mM glucose + 10% dialyzed FBS, 0.00234 µM
# [25] = RPMI 5 mM glucose + 10% dialyzed FBS, 0.00702 µM
# [26] = RPMI 5 mM glucose + 10% dialyzed FBS, 0.0211 µM
# [27] = RPMI 5 mM glucose + 10% dialyzed FBS, 0.0632 µM
# [28] = RPMI 5 mM glucose + 10% dialyzed FBS, 0.19 µM
# [29] = RPMI 5 mM glucose + 10% dialyzed FBS, 0.569 µM
# [30] = RPMI 5 mM glucose + 10% dialyzed FBS, 1.71 µM
# [31] = RPMI 5 mM glucose + 10% dialyzed FBS, 5.12 µM
# [32] = RPMI 5 mM glucose + 10% dialyzed FBS, 15.4 µM
# [33] = RPMI 5 mM glucose + 10% dialyzed FBS, 46.1 µM
SMILES,cell viability [1] [%],cell viability [2] [%],cell viability [3] [%],cell viability [4] [%],cell viability [5] [%],cell viability [6] [%],cell viability [7] [%],cell viability [8] [%],cell viability [9] [%],cell viability [10] [%],cell viability [11] [%],cell viability [12] [%],cell viability [13] [%],cell viability [14] [%],cell viability [15] [%],cell viability [16] [%],cell viability [17] [%],cell viability [18] [%],cell viability [19] [%],cell viability [20] [%],cell viability [21] [%],cell viability [22] [%],cell viability [23] [%],cell viability [24] [%],cell viability [25] [%],cell viability [26] [%],cell viability [27] [%],cell viability [28] [%],cell viability [29] [%],cell viability [30] [%],cell viability [31] [%],cell viability [32] [%],cell viability [33] [%]
COc1cc2ncn(-c3cc(OCc4ccccc4C(F)(F)F)c(C(N)=O)s3)c2cc1OC,120,121,116,115,115,104,110,65.3,28.6,22.4,20.7,124,121,122,115,124,105,128,74,18.4,13.4,13.1,108,112,124,120,116,142,139,103,25.9,20.3,19.5
N=C(N)NC(=N)N1CCOCC1,97.7,97.2,112,98,99.1,105,109,103,86.4,98.9,112,94,94.5,99.7,96.2,105,104,113,93.4,71.2,100,106,104,114,107,104,106,100,111,93.6,114,92.3,110
CCOCC(O)COc1ccc(NC(=O)CC[S+](C)C)cc1 (stereo not given),88.2,77.9,93.7,90.5,94.2,93.5,106,91.9,109,107,84.8,77.9,92.1,85.9,80.9,85.2,103,95.3,76.7,106,104,72.2,76.2,88.3,82.6,73.5,91.2,96.8,95.9,102,107,112,72.1
C[C@H](NCc1ccc(OCc2cccc(F)c2)cc1)C(N)=O,81,102,102,107,97.6,76.7,58,42.3,29.6,30.7,9.65,102,99.9,106,100,106,92.1,60.1,44.1,26,22.1,10.9,78.5,99.8,102,85.1,102,67.1,47.6,27.9,21,20.6,13.2
CN(C)[C@@H](CCOc1cccc2ccccc12)c1ccccc1,139,115,125,110,119,120,100,108,111,107,65,120,122,122,127,132,131,103,118,95.7,114,71.2,101,121,117,127,131,129,91.5,132,101,136,81
